Results: the supplement of paper PMC11208160
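Note: IS621 recombinase and bridge RNA in Escherichia coli cells.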

Test: recombinant barcode read abundance after kanamycin selection (control-corrected) (log10(CPM+1)); higher = more efficient recombination; sequences stand for … in AGTGCAGAGAAAATCGGCCAGTTTTCTCTGCCTGCAGTCCGCATGCCGT…AGATTTATGCAGCGGACTGCCTTTCTCCCAAAGTGATAAACCGGACAGTATCATGGACCGGTTTTCCCGGTAATCCGTATTTGCAAGGTTGGTTTCACT; site = the 11-nt target
Method in brief: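 A vector carrying a T7-inducible recombinase and the last 73 bp of the bridge RNA received, by Gibson cloning, oligos encoding a promoter, target, barcode and the first 104 bridge RNA bases under J23119. The pooled constructs entered E. coli together with a donor plasmid by electroporation. Selection used chloramphenicol/ampicillin/kanamycin with 0.1 mM IPTG, with chloramphenicol/ampicillin LB agar as the control, each in two replicates. Recombination efficiency is the averaged, control-corrected counts-per-million of barcodes at recombinant junctions, reported as log10(CPM+1).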
For “GTTGCGGCTTGGGTTCTAACCTGTTGCCT (site GTTCCGGCTAG)”, the “recombinant barcode read abundance (log10)” value was 0.0471.
With “GTTGCGGCTTGGGTTCTAACCTGTTGCCT (site GTTGCGGCTAG)” the “recombinant barcode read abundance (log10)” value was 0.898.
In the case of “GTTGCGGCTTGGGTTCTAACCTGTTGCCT (site GTTTCGGCTAG)”, the “recombinant barcode read abundance (log10)” value is reported as 0.34.
With “GTTGGAGCTTGGGTTCTAACCTGTTGCAG (site GTTGGAGCTCT)” the “recombinant barcode read abundance (log10)” value was 2.24.
With “GTTGGAGCTTGGGTTCTAACCTGTTGCAG (site TATGGAGCTCT)” the “recombinant barcode read abundance (log10)” value was 0.146.
With “GTTGGAGCTTGGGTTCTAACCTGTTGCCT (site GTTAGAGCTAG)” the “recombinant barcode read abundance (log10)” value was 1.97.
In the case of “GTTGGAGCTTGGGTTCTAACCTGTTGCCT (site GTTCGAGCTAG)”, the “recombinant barcode read abundance (log10)” value is reported as 0.487.
In the case of “GTTGGAGCTTGGGTTCTAACCTGTTGCCT (site GTTGGAGCTAG)”, the “recombinant barcode read abundance (log10)” value is reported as 2.35.
With “GTTGGAGCTTGGGTTCTAACCTGTTGCCT (site GTTTGAGCTAG)” the “recombinant barcode read abundance (log10)” value was 0.304.
In the case of “GTTTAGTCTTGGGTTCTAACCTGTTGCCT (site GTTTAATCTAG)”, the “recombinant barcode read abundance (log10)” value is reported as 0.159.
For “GTTTAGTCTTGGGTTCTAACCTGTTGCCT (site GTTTAGTCTAG)”, the “recombinant barcode read abundance (log10)” value was 1.01.
With “GTTTATACTTGGGTTCTAACCTGTTGCGT (site GATGATACTAC)” the “recombinant barcode read abundance (log10)” value was 0.0203.
In the case of “GTTTATACTTGGGTTCTAACCTGTTGCGT (site GTTTATACTAC)”, the “recombinant barcode read abundance (log10)” value is reported as 0.749.
In the case of “GTTTCAACTTGGGTTCTAACCTGTTGCCA (site CAACACCCTAT)”, the “recombinant barcode read abundance (log10)” value is reported as 0.0582.
In the case of “GTTTCAACTTGGGTTCTAACCTGTTGCCA (site GTTTCAACTTG)”, the “recombinant barcode read abundance (log10)” value is reported as 0.061.
For “GTTTCAACTTGGGTTCTAACCTGTTGCGT (site AAGAACTCTCG)”, the “recombinant barcode read abundance (log10)” value was 0.18.
For “GTTTCAACTTGGGTTCTAACCTGTTGCGT (site GTTTCAACTAC)”, the “recombinant barcode read abundance (log10)” value was 0.729.
For “GTTTCCTCTTGGGTTCTAACCTGTTGCCG (site GGATCCTCTCG)”, the “recombinant barcode read abundance (log10)” value was 0.251.
In the case of “GTTTCCTCTTGGGTTCTAACCTGTTGCCG (site GTTTCCTCTCG)”, the “recombinant barcode read abundance (log10)” value is reported as 0.78.
For “GTTTGACCTTGGGTTCTAACCTGTTGCTT (site GTTTGACCTAA)”, the “recombinant barcode read abundance (log10)” value was 0.532.
With “GTTTGACCTTGGGTTCTAACCTGTTGCTT (site GTTTGCCCTAA)” the “recombinant barcode read abundance (log10)” value was 0.229.
For “GTTTGACCTTGGGTTCTAACCTGTTGCTT (site GTTTGGCCTAA)”, the “recombinant barcode read abundance (log10)” value was 0.171.
For “GTTTGACCTTGGGTTCTAACCTGTTGCTT (site GTTTGTCCTAA)”, the “recombinant barcode read abundance (log10)” value was 0.0874.
In the case of “GTTTGGACTTGGGTTCTAACCTGTTGCTA (site GTTTGGACTCA)”, the “recombinant barcode read abundance (log10)” value is reported as 0.178.
In the case of “GTTTGGACTTGGGTTCTAACCTGTTGCTA (site GTTTGGACTTA)”, the “recombinant barcode read abundance (log10)” value is reported as 0.904.
For “GTTTGGTCTTGGGTTCTAACCTGTTGCCT (site GTTTGATCTAG)”, the “recombinant barcode read abundance (log10)” value was 0.285.
With “GTTTGGTCTTGGGTTCTAACCTGTTGCCT (site GTTTGCTCTAG)” the “recombinant barcode read abundance (log10)” value was 0.0727.
In the case of “GTTTGGTCTTGGGTTCTAACCTGTTGCCT (site GTTTGGTCTAG)”, the “recombinant barcode read abundance (log10)” value is reported as 0.405.
With “GTTTGGTCTTGGGTTCTAACCTGTTGCCT (site GTTTGTTCTAG)” the “recombinant barcode read abundance (log10)” value was 0.0972.
In the case of “GTTTGTTCTTGGGTTCTAACCTGTTGCCT (site GTTTGATCTAG)”, the “recombinant barcode read abundance (log10)” value is reported as 0.0239.
With “GTTTGTTCTTGGGTTCTAACCTGTTGCCT (site GTTTGCTCTAG)” the “recombinant barcode read abundance (log10)” value was 0.0623.
In the case of “GTTTGTTCTTGGGTTCTAACCTGTTGCCT (site GTTTGGTCTAG)”, the “recombinant barcode read abundance (log10)” value is reported as 0.237.
For “GTTTGTTCTTGGGTTCTAACCTGTTGCCT (site GTTTGTTCTAG)”, the “recombinant barcode read abundance (log10)” value was 0.254.
With “TAAACAGCTTGGGTTCTAACCTGTTGCCT (site TAAACAGCTAG)” the “recombinant barcode read abundance (log10)” value was 0.0976.
For “TAAACAGCTTGGGTTCTAACCTGTTGCCT (site TACACAGCTAG)”, the “recombinant barcode read abundance (log10)” value was 0.00929.
For “TAAACAGCTTGGGTTCTAACCTGTTGCCT (site TAGACAGCTAG)”, the “recombinant barcode read abundance (log10)” value was 0.171.
In the case of “TAAACAGCTTGGGTTCTAACCTGTTGCCT (site TATACAGCTAG)”, the “recombinant barcode read abundance (log10)” value is reported as 0.0779.
With “TAAAGAGCTTGGGTTCTAACCTGTTGCGG (site TAAAGAGCTCC)” the “recombinant barcode read abundance (log10)” value was 1.57.
With “TAAAGAGCTTGGGTTCTAACCTGTTGCGG (site TACAGAGCTCC)” the “recombinant barcode read abundance (log10)” value was 0.153.
With “TAAAGAGCTTGGGTTCTAACCTGTTGCGG (site TAGAGAGCTCC)” the “recombinant barcode read abundance (log10)” value was 0.109.
In the case of “TAAAGAGCTTGGGTTCTAACCTGTTGCGG (site TATAGAGCTCC)”, the “recombinant barcode read abundance (log10)” value is reported as 0.236.
For “TAACCCACTTGGGTTCTAACCTGTTGCCT (site TAACCCACTAG)”, the “recombinant barcode read abundance (log10)” value was 1.1.
For “TAACCCACTTGGGTTCTAACCTGTTGCCT (site TTACGCACTAG)”, the “recombinant barcode read abundance (log10)” value was 0.334.
With “TAACCTACTTGGGTTCTAACCTGTTGCAT (site TAACATACTAT)” the “recombinant barcode read abundance (log10)” value was 0.0358.
With “TAACCTACTTGGGTTCTAACCTGTTGCAT (site TAACCTACTAT)” the “recombinant barcode read abundance (log10)” value was 0.802.
In the case of “TAACCTACTTGGGTTCTAACCTGTTGCAT (site TAACGTACTAT)”, the “recombinant barcode read abundance (log10)” value is reported as 0.169.
With “TAACCTACTTGGGTTCTAACCTGTTGCAT (site TAACTTACTAT)” the “recombinant barcode read abundance (log10)” value was 0.0519.
In the case of “TAACGATCTTGGGTTCTAACCTGTTGCAT (site TAACGATCTAT)”, the “recombinant barcode read abundance (log10)” value is reported as 0.497.
With “TAACGATCTTGGGTTCTAACCTGTTGCAT (site TAACGGTCTAA)” the “recombinant barcode read abundance (log10)” value was 0.0405.
For “TAACGGTCTTGGGTTCTAACCTGTTGCTT (site TAACGATCTAT)”, the “recombinant barcode read abundance (log10)” value was 0.44.
With “TAACGGTCTTGGGTTCTAACCTGTTGCTT (site TAACGGTCTAA)” the “recombinant barcode read abundance (log10)” value was 1.09.
In the case of “TAACGTACTTGGGTTCTAACCTGTTGCGG (site TAACGTACTCC)”, the “recombinant barcode read abundance (log10)” value is reported as 1.41.
With “TAACGTACTTGGGTTCTAACCTGTTGCGG (site TAACGTCCTAC)” the “recombinant barcode read abundance (log10)” value was 0.113.
With “TAACTCTCTTGGGTTCTAACCTGTTGCCT (site TAACTCTCTAG)” the “recombinant barcode read abundance (log10)” value was 1.05.
In the case of “TAACTCTCTTGGGTTCTAACCTGTTGCCT (site TCACTCTCTAG)”, the “recombinant barcode read abundance (log10)” value is reported as 0.0372.
For “TAACTCTCTTGGGTTCTAACCTGTTGCCT (site TGACTCTCTAG)”, the “recombinant barcode read abundance (log10)” value was 0.0157.
For “TAACTCTCTTGGGTTCTAACCTGTTGCCT (site TTACTCTCTAG)”, the “recombinant barcode read abundance (log10)” value was 0.145.
For “TAACTGTCTTGGGTTCTAACCTGTTGCTT (site CCGTCTACTTG)”, the “recombinant barcode read abundance (log10)” value was 0.121.
With “TAACTGTCTTGGGTTCTAACCTGTTGCTT (site TAACTGTCTAA)” the “recombinant barcode read abundance (log10)” value was 1.74.
With “TAACTTACTTGGGTTCTAACCTGTTGCCT (site TAACTTACTAG)” the “recombinant barcode read abundance (log10)” value was 0.185.
For “TAACTTACTTGGGTTCTAACCTGTTGCCT (site TAGCTTACTCG)”, the “recombinant barcode read abundance (log10)” value was 0.0408.
With “TAAGCCTCTTGGGTTCTAACCTGTTGCTG (site TAAGCCTCTCA)” the “recombinant barcode read abundance (log10)” value was 2.54.
With “TAAGCCTCTTGGGTTCTAACCTGTTGCTG (site TAAGCTACTCA)” the “recombinant barcode read abundance (log10)” value was 0.
With “TAAGGTCCTTGGGTTCTAACCTGTTGCTA (site GGAGGTCCTTA)” the “recombinant barcode read abundance (log10)” value was 0.0326.
In the case of “TAAGGTCCTTGGGTTCTAACCTGTTGCTA (site TAAGGTCCTTA)”, the “recombinant barcode read abundance (log10)” value is reported as 1.81.
In the case of “TAATCGGCTTGGGTTCTAACCTGTTGCCT (site TAATCGACTAG)”, the “recombinant barcode read abundance (log10)” value is reported as 0.0571.
In the case of “TAATCGGCTTGGGTTCTAACCTGTTGCCT (site TAATCGCCTAG)”, the “recombinant barcode read abundance (log10)” value is reported as 0.0352.
With “TAATCGGCTTGGGTTCTAACCTGTTGCCT (site TAATCGGCTAG)” the “recombinant barcode read abundance (log10)” value was 0.453.
With “TAATCGGCTTGGGTTCTAACCTGTTGCCT (site TAATCGTCTAG)” the “recombinant barcode read abundance (log10)” value was 0.111.
In the case of “TAATCGTCTTGGGTTCTAACCTGTTGCCT (site TAATCGACTAG)”, the “recombinant barcode read abundance (log10)” value is reported as 0.0844.
With “TAATCGTCTTGGGTTCTAACCTGTTGCCT (site TAATCGCCTAG)” the “recombinant barcode read abundance (log10)” value was 0.0275.
In the case of “TAATCGTCTTGGGTTCTAACCTGTTGCCT (site TAATCGGCTAG)”, the “recombinant barcode read abundance (log10)” value is reported as 0.0826.
In the case of “TAATCGTCTTGGGTTCTAACCTGTTGCCT (site TAATCGTCTAG)”, the “recombinant barcode read abundance (log10)” value is reported as 1.84.
With “TAATGATCTTGGGTTCTAACCTGTTGCCT (site TAATGATCTAG)” the “recombinant barcode read abundance (log10)” value was 0.635.
For “TAATGATCTTGGGTTCTAACCTGTTGCCT (site TACTGATCTAG)”, the “recombinant barcode read abundance (log10)” value was 0.0744.
With “TAATGATCTTGGGTTCTAACCTGTTGCCT (site TAGTGATCTAG)” the “recombinant barcode read abundance (log10)” value was 0.15.
For “TAATGATCTTGGGTTCTAACCTGTTGCCT (site TATTGATCTAG)”, the “recombinant barcode read abundance (log10)” value was 0.155.
For “TAATGCCCTTGGGTTCTAACCTGTTGCCT (site TAATGCCCTAG)”, the “recombinant barcode read abundance (log10)” value was 0.634.
For “TAATGCCCTTGGGTTCTAACCTGTTGCCT (site TATTGCCCTAG)”, the “recombinant barcode read abundance (log10)” value was 0.13.
In the case of “TAATGTTCTTGGGTTCTAACCTGTTGCAT (site TAATGGTCTAT)”, the “recombinant barcode read abundance (log10)” value is reported as 0.0924.
In the case of “TAATGTTCTTGGGTTCTAACCTGTTGCAT (site TAATGTTCTAT)”, the “recombinant barcode read abundance (log10)” value is reported as 1.14.
In the case of “TAATTGTCTTGGGTTCTAACCTGTTGCGT (site CAATTGTCTAC)”, the “recombinant barcode read abundance (log10)” value is reported as 0.725.
For “TAATTGTCTTGGGTTCTAACCTGTTGCGT (site TAATTGTCTAC)”, the “recombinant barcode read abundance (log10)” value was 2.45.
With “TAATTTGCTTGGGTTCTAACCTGTTGCCT (site CGCGAGTCTCA)” the “recombinant barcode read abundance (log10)” value was 0.215.
For “TAATTTGCTTGGGTTCTAACCTGTTGCCT (site TAATTTGCTAG)”, the “recombinant barcode read abundance (log10)” value was 0.182.
For “TACAAGCCTTGGGTTCTAACCTGTTGCGG (site TACAAGCCTCC)”, the “recombinant barcode read abundance (log10)” value was 1.91.
